Reference: patent EP0853084B1, “Substituted purine derivatives as vitronectin receptor antagonists” (HOECHST AKTIENGESELLSCHAFT, priority 1996, dated 1998)

These molecules were tested against humanen Vitronectinrezeptor (VnR) αvβ3 (Homo sapiens, UniProt P05106+P06756) (assay: Inhibition of binding of Kistrin to human vitronectin receptor (αvβ3 ELISA test, K/VnR)). Conditions: 10 µM test compound, read-out: K/VnR Inhibierung bei 10 µM (in %).
Description: Als Testmethode, nach der beispielsweise die antagonistische Wirkung der erfindungsgemäßen Verbindungen auf den Vitronectinrezeptor αvβ3 bestimmt werden kann, wird nachfolgend die Inhibierung der Bindung von Kistrin an humanen Vitronectinrezeptor (VnR) beschrieben (αvβ3-ELISA-Test; die Testmethode wird bei der Auflistung der Testergebnisse mit "K/VnR" abgekürzt).
Kistrin wird nach den Methoden von Dennis et al., wie in Proc. Natl. Acad. Sci. USA 1989, 87, 2471-2475 und PROTEINS: Structure, Function and Genetics 1993, 15, 312-321, beschrieben, gereinigt.
Humaner Vitronectinrezeptor wird aus der menschlichen Plazenta nach der Methode von Pytela et al., Methods Enzymol. 1987, 14.4, 475 gewonnen. Humaner Vitronectinrezeptor αvβ3 kann auch aus einigen Zellinien (zum Beispiel aus 293 Zellen, einer humanen embryonalen Nierenzellinie), die mit DNA Sequenzen für beide Untereinheiten αv und β3 des Vitronectinrezeptors co-transfziert sind, gewonnen werden. Die Untereinheiten wurden mit Octylglycosid extrahiert und anschließend über Concanavalin A, Heparin-Sepharose und S-300 chromatographiert.
Murine monoklonale Antikörper, spezifisch für die β3 Untereinheit des Vitronectinrezeptors, werden nach der Methode von Newman et al., Blood, 1985, 227-232, oder nach einem ähnlichen Verfahren hergestellt. Das Kaninchen Fab 2 anti-Maus Fc Konjugat an Meerrettich-Peroxidase (anti-Maus Fc HRP) wurde von Pel Freeze (Katalog Nr. 715 305-1) bezogen.
Die Fähigkeit von Substanzen die Bindung von Kistrin an den Vitronectinrezeptor zu inhibieren, kann mit einem ELISA-Test ermittelt werden. Zu diesem Zweck werden Nunc 96 well-Mikrotiterplatten mit einer Lösung von Kistrin (0.002 mg/ml) nach der Methode von Dennis et al., wie in PROTEINS: Structure, Function and Genetics 1993, 15, 312-321, beschrieben, belegt. Die Platten werden dann zweimal mit PBS/0.05 % Tween-20 gewaschen und durch Inkubieren (60 min) mit RinderserumAlbumin (BSA, 0.5 %, RIA Güteklasse oder besser) in Tris-HCl (50 mM), NaCl (100 mM), MgCl2 (1 mM), CaCl2 (1 mM), MnCl2 (1 mM), pH 7, geblockt. Man stellt Lösungen von bekannten Inhibitoren und von den Testsubstanzen in Konzentrationen von 2 x 10^-12 bis 2 x 10^-6 mol/l in Assay-Puffer (BSA (0.5 %, RIA-Güteklasse oder besser) in Tris-HCl (50 mM), NaCl (100 mM), MgCl2 (1 mM), CaCl2 (1 mM), MnCl2 (1 mM), pH 7) her. Die geblockten Platten werden entleert, und jeweils 0.025 ml dieser Lösung, die eine definierte Konzentration (2 x 10^-12 bis 2 x 10^-6 mol/l) entweder an einem bekannten Inhibitor oder an einer Testsubstanz enthält, werden in jedes well gegeben. 0.025 ml einer Lösung des Vitronectinrezeptors im Testpuffer (0.03 mg/ml) werden in jedes well der Platte pipettiert und die Platte wird auf einem Schüttler 60-180 min bei Raumtemperatur inkubiert. In der Zwischenzeit wird eine Lösung (6 ml/Platte) eines für die β3-Untereinheit des Vitronectinrezeptors spezifischen murinen monoklonalen Antikörpers im Assay-Puffer (0.0015 mg/ml) hergestellt. Zu dieser Lösung gibt man einen zweiten Kaninchen-Antikörper (0.001 ml Stammlösung/6 ml der murinen monoklonalen anti-β3-Antikörper-Lösung), der ein anti-Maus Fc HRP Antikörper Konjugat darstellt, und dieses Gemisch aus murinem anti-β3 Antikörper und Kaninchen anti-Maus Fc HRP Antikörper Konjugat läßt man während der Zeit der Rezeptor-Inhibitor-Inkubation inkubieren. Die Testplatten werden viermal mit PBS-Lösung, die 0.05 % Tween-20 enthält, gewaschen und man pipettiert jeweils 0.05 ml/well der Antikörpermischung in jedes well der Platte und inkubiert 60-180 min. Die Platte wird viermal mit PBS/0.05 % Tween-20 gewaschen und anschließend mit 0.05 ml/well einer PBS-Lösung, die 0.67 mg/ml o-Phenylendiamin und 0.012 % H2O2 enthält, entwickelt. Alternativ hierzu kann o-Phenylendiamin in einem Puffer (pH 5) eingesetzt werden, der Na3PO4 und Zitronensäure enthält. Die Farbentwicklung wird mit 1 N H2SO4 (0.05 ml/well) gestoppt. […]

Chain of humanen Vitronectinrezeptor (VnR) αvβ3 (P06756 31-889 limits assumed): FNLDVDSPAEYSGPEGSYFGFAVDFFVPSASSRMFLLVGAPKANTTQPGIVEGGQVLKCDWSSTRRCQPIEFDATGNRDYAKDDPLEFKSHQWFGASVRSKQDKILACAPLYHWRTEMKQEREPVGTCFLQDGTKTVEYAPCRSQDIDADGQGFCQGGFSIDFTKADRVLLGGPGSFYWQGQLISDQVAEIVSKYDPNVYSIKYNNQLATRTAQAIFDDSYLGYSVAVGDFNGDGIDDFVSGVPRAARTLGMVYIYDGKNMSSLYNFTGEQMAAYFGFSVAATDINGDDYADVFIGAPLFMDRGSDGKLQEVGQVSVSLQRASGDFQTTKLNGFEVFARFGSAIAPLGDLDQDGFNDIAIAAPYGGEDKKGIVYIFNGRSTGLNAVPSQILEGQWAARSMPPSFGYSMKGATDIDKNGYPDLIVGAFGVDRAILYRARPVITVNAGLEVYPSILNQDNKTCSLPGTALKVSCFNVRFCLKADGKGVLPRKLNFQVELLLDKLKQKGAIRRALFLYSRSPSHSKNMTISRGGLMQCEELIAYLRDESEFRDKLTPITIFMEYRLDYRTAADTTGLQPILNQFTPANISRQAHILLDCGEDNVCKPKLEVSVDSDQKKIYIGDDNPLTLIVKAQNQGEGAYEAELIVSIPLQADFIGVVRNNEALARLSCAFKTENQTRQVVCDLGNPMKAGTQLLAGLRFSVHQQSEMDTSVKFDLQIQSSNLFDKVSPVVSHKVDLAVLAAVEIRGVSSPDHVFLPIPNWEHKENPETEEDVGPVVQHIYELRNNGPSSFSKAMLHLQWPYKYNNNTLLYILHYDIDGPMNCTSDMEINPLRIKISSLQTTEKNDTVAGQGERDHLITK
Chain of humanen Vitronectinrezeptor (VnR) αvβ3 (P06756 891-1048 partner limits assumed): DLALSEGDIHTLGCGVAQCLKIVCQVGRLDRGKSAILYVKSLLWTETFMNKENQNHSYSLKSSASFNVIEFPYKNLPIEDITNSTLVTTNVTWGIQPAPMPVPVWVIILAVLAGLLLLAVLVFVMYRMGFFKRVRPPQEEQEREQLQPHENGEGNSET
Chain of humanen Vitronectinrezeptor (VnR) αvβ3 (P05106 27-788): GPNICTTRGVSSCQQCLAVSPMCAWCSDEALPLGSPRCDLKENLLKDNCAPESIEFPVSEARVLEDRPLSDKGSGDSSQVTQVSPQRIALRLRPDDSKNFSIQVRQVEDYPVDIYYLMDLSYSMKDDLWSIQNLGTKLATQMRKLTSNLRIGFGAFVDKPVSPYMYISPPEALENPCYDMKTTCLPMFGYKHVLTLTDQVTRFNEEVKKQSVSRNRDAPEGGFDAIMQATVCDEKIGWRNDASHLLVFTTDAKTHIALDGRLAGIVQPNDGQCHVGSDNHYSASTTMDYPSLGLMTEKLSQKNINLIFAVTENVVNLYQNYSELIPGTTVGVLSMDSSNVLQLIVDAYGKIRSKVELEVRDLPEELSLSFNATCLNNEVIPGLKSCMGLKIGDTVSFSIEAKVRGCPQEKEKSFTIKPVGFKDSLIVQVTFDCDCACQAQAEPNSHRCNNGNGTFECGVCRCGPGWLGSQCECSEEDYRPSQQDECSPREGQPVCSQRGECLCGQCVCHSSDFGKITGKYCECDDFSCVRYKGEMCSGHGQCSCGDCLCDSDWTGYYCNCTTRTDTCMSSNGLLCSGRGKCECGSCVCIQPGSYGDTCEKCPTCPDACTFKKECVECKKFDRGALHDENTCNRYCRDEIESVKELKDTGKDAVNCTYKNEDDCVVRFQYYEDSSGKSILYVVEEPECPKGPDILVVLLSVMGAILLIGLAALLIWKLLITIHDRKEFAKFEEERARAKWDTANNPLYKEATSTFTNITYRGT

First: N=C(N)NCCCCCNc1ncnc2c1ncn2C[C@H](NC(=O)OCc1ccccc1)C(=O)O [Beispiel 1, N^6-(1-(5-Guanidinopentyl))-N^9-(3-(2S-(benzyloxycarbonylamino)propionsäure))-adenin]
Second: N=C(N)NCCCCNc1ncnc2c1ncn2C[C@H](NC(=O)OCc1ccccc1)C(=O)O [Beispiel 2, N^6-(1-(4-Guanidinobutyl))-N^9-(3-(2S-(benzyloxycarbonylamino)propionsäure))-adenin]
The inhibition at 10 µM of the first is lower: 75% for the first, 80% for the second.

First: N=C(N)NCCCNc1ncnc2c1ncn2C[C@H](NC(=O)OCc1ccccc1)C(=O)O [Beispiel 3, N^6-(1-(3-Guanidinopropyl))-N^9-(3-(2S-(benzyloxycarbonylamino)propionsäure))-adenin]
Second: N=C(N)NCCCn1cnc2c(NCC[C@H](NC(=O)OCc3ccccc3)C(=O)O)ncnc21 [Beispiel 12, N^6-(4-(2S-(Benzyloxycarbonylamino)buttersäure))-N^9-(1-(3-guanidinylpropyl))-adenin]
The inhibition at 10 µM of the first is lower: 77% for the first, 86% for the second.

Compared with `O=C(N[C@@H](Cn1cnc2c(NCCCCNC3=NCCN3)ncnc21)C(=O)O)OCc1ccccc1` [Beispiel 4, N^6-(1-(4-(4,5-Dihydro-1H-imidazol-2-ylamino)butyl))-N^9-(3-(2S-(benzyloxycarbonylamino)propionsäure))-adenin], `O=C(N[C@@H](CCNc1ncnc2c1ncn2CCCNC1=NCCN1)C(=O)O)OCc1ccccc1` [Beispiel 13, N^6-(4-(2S-(Benzyloxycarbonylamino)buttersäure))-N^9-(1-(3-(4,5-dihydro-1H-imidazol-2-ylamino)-propyl))-adenin] is lower in inhibition at 10 µM: 93% for the first, 92% for the second.

Compared with `N=C(N)NCCCCCn1cnc2c(NC[C@H](NC(=O)OCc3ccccc3)C(=O)O)ncnc21` [Beispiel 14, N^6-(3-(2S-(Benzyloxycarbonylamino)propionsäure))-N^9-(1-(5-guanidinylpentyl))-adenin], `N=C(N)NCCCCn1cnc2c(NC[C@H](NC(=O)OCc3ccccc3)C(=O)O)ncnc21` [Beispiel 17, N^6-(3-(2S-(Benzyloxycarbonylamino)propionsäure))-N^9-(1-(4-guanidinylbutyl))-adenin] is higher in inhibition at 10 µM: 84% for the first, 92% for the second.

Compared with `NCCCCCn1cnc2c(NC[C@H](NC(=O)OCc3ccccc3)C(=O)O)ncnc21` [Beispiel 14c, N^6-(3-(2S-(Benzyloxycarbonylamino)propionsäure))-N^9-(1-(5-aminopentyl))-adenin], `NCCCn1cnc2c(NC[C@H](NC(=O)OCc3ccccc3)C(=O)O)ncnc21` [Beispiel 16b, N^6-(3-(2S-(Benzyloxycarbonylamino)propionsäure))-N^9-(1-(3-aminopropyl))-adenin] is higher in inhibition at 10 µM: 22% for the first, 29% for the second.

First: O=C(N[C@@H](CNc1ncnc2c1ncn2CCCCCNC1=NCCN1)C(=O)O)OCc1ccccc1 [Beispiel 15, N^6-(3-(2S-(Benzyloxycarbonylamino)propionsäure))-N^9-(1-(5-(4,5-dihydro-1H-imidazol-2-ylamino)pentyl))-adenin]
Second: O=C(N[C@@H](CNc1ncnc2c1ncn2CCCCNC1=NCCN1)C(=O)O)OCc1ccccc1 [Beispiel 18]
The inhibition at 10 µM of the first is lower: 92% for the first, 95% for the second.

Going from `N=C(N)NCCCn1cnc2c(NC[C@H](NC(=O)OCc3ccccc3)C(=O)O)ncnc21` [Beispiel 16, N^6-(3-(2S-(Benzyloxycarbonylamino)propionsäure))-N^9-(1-(3-guanidinylpropyl))-adenin] to `N=C(N)NCC1CCN(c2ncnc3c2ncn3C[C@H](NC(=O)OCc2ccccc2)C(=O)O)CC1` [Beispiel 26, 2S-Benzyloxycarbonylamino-3-(6-(4-(guanidinomethyl)-piperidin-1-yl)-purin-9-yl)-propionsäure], the inhibition at 10 µM rises from 85% to 91%.

Compared with `O=C(N[C@@H](Cn1cnc2c(N3CCC(C(=O)NC4=NCCCN4)CC3)ncnc21)C(=O)O)OCc1ccccc1` [Beispiel 19, 2S-Benzyloxycarbonylamino-3-(6-(4-(1,4,5,6-tetrahydropyrimidin-2-ylcarbamoyl)-piperdin-1-yl)-purin-9-yl)-propionsäure], `O=C(N[C@@H](Cn1cnc2c(N3CCC(CNC4=NCCN4)CC3)ncnc21)C(=O)O)OCc1ccccc1` [Beispiel 24, 2S-Benzyloxycarbonylamino-3-(6-(4-((4,5-dihydro-1H-imidazol-2-ylamino)-methyl)-piperidin-1-yl)-purin-9-yl)-propionsäure] is lower in inhibition at 10 µM: 97% for the first, 95% for the second.

Going from `O=C(N[C@@H](Cn1cnc2c(NCCCCNc3nc4ccccc4[nH]3)ncnc21)C(=O)O)OCc1ccccc1` [Beispiel 23, 3-(6-((4-(Benzimidazol-2-ylamino)-butyl)-amino)-purin-9-yl)-2S-benzyloxycarbonyl-amino-propionsäure] to `O=C(N[C@H](Cn1cnc2c(N3CCC(CNC4=NCCN4)CC3)ncnc21)C(=O)O)OCc1ccccc1` [Beispiel 25], the inhibition at 10 µM falls from 93% to 89%.
